Assay results: PubChem BioAssay AID1963449 (Molecular Pharmacology Branch, DTP, NCI, 2024)

Tested on: 596521-263-R-J1-PDC complex spheroid growth
Assay: Anticancer human tumor 596521-263-R-J1-PDC patient-derived soft tissue sarcoma cell line growth inhibition [Asc]
Details: for IC50: curve of first compound; for viability, T/C: stronger effect = lower value; active = viability on the fitted dose curve at most 10% of control; inactive = the rest
Method in brief: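 Concentration series start at each agent's clinical Cmax, or at 10 microM when none is established, and drop in half-log steps; agents are applied alone or together to complex spheroids built with HUVEC and hMSC.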

[1] = second compound 0.0316 µM, first compound 0.00316 µM
[2] = second compound 0.0316 µM, first compound 0.01 µM
[3] = second compound 0.0316 µM, first compound 0.0316 µM
[4] = second compound 0.0316 µM, first compound 0.1 µM
[5] = second compound 0.1 µM, first compound 0.00316 µM
[6] = second compound 0.1 µM, first compound 0.01 µM
[7] = second compound 0.1 µM, first compound 0.0316 µM
[8] = second compound 0.1 µM, first compound 0.1 µM
[9] = second compound 0.316 µM, first compound 0.00316 µM
[10] = second compound 0.316 µM, first compound 0.01 µM
[11] = second compound 0.316 µM, first compound 0.0316 µM
[12] = second compound 0.316 µM, first compound 0.1 µM
[13] = second compound 1 µM, first compound 0.00316 µM
[14] = second compound 1 µM, first compound 0.01 µM
[15] = second compound 1 µM, first compound 0.0316 µM
[16] = second compound 1 µM, first compound 0.1 µM
[17] = second compound 3.16 µM, first compound 0.00316 µM
[18] = second compound 3.16 µM, first compound 0.01 µM
[19] = second compound 3.16 µM, first compound 0.0316 µM
[20] = second compound 3.16 µM, first compound 0.1 µM
[21] = second compound 10 µM, first compound 0.00316 µM
[22] = second compound 10 µM, first compound 0.01 µM
[23] = second compound 10 µM, first compound 0.0316 µM
[24] = second compound 10 µM, first compound 0.1 µM
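Also: spheroids exposed to compounds for 7 days.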

COc1c(OCCCN2CCOCC2)ccc2c3n(c(=NC(=O)c4cnc(N)nc4)nc12)CCN3 + Cc1c(S(C)(=O)=O)c(-c2cc(F)cc(N3CCN(c4ccc(NS(=O)(=O)c5ccc(NC(CCN6CCC(C(=O)OCCCP(=O)(O)O)CC6)CSc6ccccc6)c(S(=O)(=O)C(F)(F)F)c5)cc4)CC3)c2)c(-c2ccc(Cl)cc2)n1C(C)C
73.7 nM: IC50 (second compound 1 µM)
142 nM: IC50 (second compound 0.1 µM)
55.3 nM: IC50 (second compound 3.16 µM)
211 nM: IC50 (second compound 0.0316 µM)
8.21 nM: IC50 (second compound 10 µM)
138 nM: IC50 (second compound 0.316 µM)
inactive: viability, T/C [1] 95.5% | viability, T/C [2] 90.8% | viability, T/C [3] 79.2% | viability, T/C [4] 67.3% | viability, T/C (second compound 0.0316 µM, first compound 0.316 µM) 39.9% | viability, T/C (second compound 0.0316 µM, first compound 1 µM) 29.4% | viability, T/C [5] 89.6% | viability, T/C [6] 92.5% | viability, T/C [7] 84.2% | viability, T/C [8] 54.6% | viability, T/C (second compound 0.1 µM, first compound 0.316 µM) 37.6% | viability, T/C (second compound 0.1 µM, first compound 1 µM) 25.6% | viability, T/C [9] 85.6% | viability, T/C [10] 84.2% | viability, T/C [11] 65.9% | viability, T/C [12] 58.1% | viability, T/C (second compound 0.316 µM, first compound 0.316 µM) 36.1% | viability, T/C (second compound 0.316 µM, first compound 1 µM) 25.4% | viability, T/C [13] 91.6% | viability, T/C [14] 76.1% | viability, T/C [15] 62% | viability, T/C [16] 47% | viability, T/C (second compound 1 µM, first compound 0.316 µM) 31.3% | viability, T/C (second compound 1 µM, first compound 1 µM) 24.9% | viability, T/C [17] 61.5% | viability, T/C [18] 62.9% | viability, T/C [19] 55.9% | viability, T/C [20] 43.1% | viability, T/C (second compound 3.16 µM, first compound 0.316 µM) 27.1% | viability, T/C (second compound 3.16 µM, first compound 1 µM) 18.5% | viability, T/C [21] 52.4% | viability, T/C [22] 50% | viability, T/C [23] 42.9% | viability, T/C [24] 41.2% | viability, T/C (second compound 10 µM, first compound 0.316 µM) 24.8% | viability, T/C (second compound 10 µM, first compound 1 µM) 13.4%

NC(=O)C(=Cn1cnc(-c2cc(C(F)(F)F)cc(C(F)(F)F)c2)n1)c1cncnc1 + Cc1c(S(C)(=O)=O)c(-c2cc(F)cc(N3CCN(c4ccc(NS(=O)(=O)c5ccc(NC(CCN6CCC(C(=O)OCCCP(=O)(O)O)CC6)CSc6ccccc6)c(S(=O)(=O)C(F)(F)F)c5)cc4)CC3)c2)c(-c2ccc(Cl)cc2)n1C(C)C
27.2 nM: IC50 (second compound 0.0316 µM)
inactive: viability, T/C (second compound 0.0316 µM, first compound 0.000949 µM) 98.4% | viability, T/C (second compound 0.0316 µM, first compound 0.003 µM) 101% | viability, T/C (second compound 0.0316 µM, first compound 0.00949 µM) 80.7% | viability, T/C (second compound 0.0316 µM, first compound 0.03 µM) 49.4% | viability, T/C (second compound 0.0316 µM, first compound 0.0949 µM) 10.3% | viability, T/C (second compound 0.1 µM, first compound 0.000949 µM) 84.2% | viability, T/C (second compound 0.1 µM, first compound 0.003 µM) 94.9% | viability, T/C (second compound 0.1 µM, first compound 0.00949 µM) 71.8% | viability, T/C (second compound 0.1 µM, first compound 0.03 µM) 48.5% | viability, T/C (second compound 0.1 µM, first compound 0.0949 µM) 6.86% | viability, T/C (second compound 0.316 µM, first compound 0.000949 µM) 94.8% | viability, T/C (second compound 0.316 µM, first compound 0.003 µM) 82.6% | viability, T/C (second compound 0.316 µM, first compound 0.00949 µM) 71.9% | viability, T/C (second compound 0.316 µM, first compound 0.03 µM) 36.9% | viability, T/C (second compound 1 µM, first compound 0.000949 µM) 76% | viability, T/C (second compound 1 µM, first compound 0.003 µM) 80.1% | viability, T/C (second compound 1 µM, first compound 0.00949 µM) 57.9% | viability, T/C (second compound 1 µM, first compound 0.03 µM) 37.2% | viability, T/C (second compound 3.16 µM, first compound 0.000949 µM) 68.7% | viability, T/C (second compound 3.16 µM, first compound 0.003 µM) 57.7% | viability, T/C (second compound 3.16 µM, first compound 0.00949 µM) 50.6% | viability, T/C (second compound 3.16 µM, first compound 0.03 µM) 21.3% | viability, T/C (second compound 10 µM, first compound 0.000949 µM) 47.4% | viability, T/C (second compound 10 µM, first compound 0.003 µM) 51.3% | viability, T/C (second compound 10 µM, first compound 0.00949 µM) 35.7% | viability, T/C (second compound 10 µM, first compound 0.03 µM) 23.6%
15.5 nM: IC50 (second compound 1 µM)
active: viability, T/C (second compound 0.0316 µM, first compound 0.3 µM) 4.54% | viability, T/C (second compound 0.1 µM, first compound 0.3 µM) 2.64% | viability, T/C (second compound 0.316 µM, first compound 0.0949 µM) 5.33% | viability, T/C (second compound 0.316 µM, first compound 0.3 µM) 1.97% | viability, T/C (second compound 1 µM, first compound 0.0949 µM) 3.95% | viability, T/C (second compound 1 µM, first compound 0.3 µM) 1.71% | viability, T/C (second compound 3.16 µM, first compound 0.0949 µM) 3.51% | viability, T/C (second compound 3.16 µM, first compound 0.3 µM) 1.52% | viability, T/C (second compound 10 µM, first compound 0.0949 µM) 3.04% | viability, T/C (second compound 10 µM, first compound 0.3 µM) 1.13%
< 0.949 nM: IC50 (second compound 10 µM)
18.8 nM: IC50 (second compound 0.316 µM)
25.1 nM: IC50 (second compound 0.1 µM)
8.57 nM: IC50 (second compound 3.16 µM)

NC1CCC(NC2CC2c2ccccc2)CC1 (stereo unspecified) + Cc1c(S(C)(=O)=O)c(-c2cc(F)cc(N3CCN(c4ccc(NS(=O)(=O)c5ccc(NC(CCN6CCC(C(=O)OCCCP(=O)(O)O)CC6)CSc6ccccc6)c(S(=O)(=O)C(F)(F)F)c5)cc4)CC3)c2)c(-c2ccc(Cl)cc2)n1C(C)C
inactive: viability, T/C (second compound 0.0316 µM, first compound 0.000316 µM) 79.8% | viability, T/C (second compound 0.0316 µM, first compound 0.001 µM) 88.9% | viability, T/C [1] 80.2% | viability, T/C [2] 90.4% | viability, T/C [3] 89.2% | viability, T/C [4] 80.6% | viability, T/C (second compound 0.1 µM, first compound 0.000316 µM) 86.7% | viability, T/C (second compound 0.1 µM, first compound 0.001 µM) 91.8% | viability, T/C [5] 77.5% | viability, T/C [6] 89.7% | viability, T/C [7] 86.5% | viability, T/C [8] 80.8% | viability, T/C (second compound 0.316 µM, first compound 0.000316 µM) 84.1% | viability, T/C (second compound 0.316 µM, first compound 0.001 µM) 77.6% | viability, T/C [9] 75.9% | viability, T/C [10] 77.9% | viability, T/C [11] 76.7% | viability, T/C [12] 75.7% | viability, T/C (second compound 1 µM, first compound 0.000316 µM) 81.2% | viability, T/C (second compound 1 µM, first compound 0.001 µM) 75.8% | viability, T/C [13] 66.3% | viability, T/C [14] 72.7% | viability, T/C [15] 68.7% | viability, T/C [16] 74.1% | viability, T/C (second compound 3.16 µM, first compound 0.000316 µM) 69.1% | viability, T/C (second compound 3.16 µM, first compound 0.001 µM) 55.7% | viability, T/C [17] 51.9% | viability, T/C [18] 58.9% | viability, T/C [19] 55.4% | viability, T/C [20] 53.4% | viability, T/C (second compound 10 µM, first compound 0.000316 µM) 48.6% | viability, T/C (second compound 10 µM, first compound 0.001 µM) 42.9% | viability, T/C [21] 44.2% | viability, T/C [22] 49% | viability, T/C [23] 35.7% | viability, T/C [24] 43%
> 100 nM: IC50 (second compound 0.0316 µM) | IC50 (second compound 0.1 µM) | IC50 (second compound 0.316 µM) | IC50 (second compound 1 µM) | IC50 (second compound 3.16 µM)
< 0.316 nM: IC50 (second compound 10 µM)
